Data published in BindingDB's records for doi:10.1021/jm00089a028 (1992).
Residues, ends and D or L forms follow the SMILES beside them.

Each compound was assayed against Endothelin receptor type B (Sus scrofa) (assay: Binding activity against Endothelin B receptor 0f Porcine cerebellum membranes).

SMILES	IC50 [µM]
CC[C@H](C)[C@H]1NC(=O)[C@H](C)NC(=O)[C@@H](CCC(=O)O)NC(=O)[C@@H](Cc2c[nH]c3ccccc23)NC(=O)[C@H](CC(C)C)NC1=O (HELM PEPTIDE1{A.[CC[C@H](C)[C@@H](N[*:1])C(=O)[*:2]].L.[dW].[dE]}$PEPTIDE1,PEPTIDE1,1:R1-5:R2$$$V2.0)	> 100
CC(C)[C@H]1NC(=O)[C@H](C)NC(=O)[C@@H](CC(=O)O)NC(=O)[C@@H](Cc2c[nH]c3ccccc23)NC(=O)[C@@H]2CCCN2C1=O (HELM PEPTIDE1{A.[dV].P.[dW].[dD]}$PEPTIDE1,PEPTIDE1,1:R1-5:R2$$$V2.0)	> 100
CC(C)C[C@@H]1NC(=O)[C@@H](C(C)C)NC(=O)CN(C)C(=O)[C@@H](CC(=O)O)NC(=O)[C@@H](Cc2c[nH]c3ccccc23)NC1=O (HELM PEPTIDE1{L.[dW].[dD].[Sar].[dV]}$PEPTIDE1,PEPTIDE1,1:R1-5:R2$$$V2.0)	30
CC(C)C[C@@H]1NC(=O)[C@@H](C(C)C)NC(=O)[C@H](C)N(C)C(=O)[C@@H](CC(=O)O)NC(=O)[C@@H](Cc2c[nH]c3ccccc23)NC1=O (HELM PEPTIDE1{L.[dW].[dD].[meA].[dV]}$PEPTIDE1,PEPTIDE1,1:R1-5:R2$$$V2.0)	47
CC(C)C[C@@H]1NC(=O)[C@@H](C(C)C)NC(=O)[C@@H]2CCCN2C(=O)[C@@H](CCC(=O)O)NC(=O)[C@@H](Cc2c[nH]c3ccccc23)NC1=O (HELM PEPTIDE1{L.[dW].[dE].P.[dV]}$PEPTIDE1,PEPTIDE1,1:R1-5:R2$$$V2.0)	> 100
